Experimental data from ChEMBL document CHEMBL1133958, “Derivatives of (2R,3R,4S)-2-aminomethylpyrrolidine-3,4-diol are selective alpha-mannosidase inhibitors” (Bioorg Med Chem Lett, 2001).
Calls of active or inactive are those of the source. No cut-off for these calls is given here.

Assays:
Saccharomyces cerevisiae [1] = experiment: Percentage inhibition of Alpha-glucosidase from Baker yeast (isomaltase) at 1 mM
Saccharomyces cerevisiae [2] = experiment: Percentage inhibition of Alpha-glucosidase from Yeast (maltase) at 1 mM
[3] = target: T1, Beta-galactosidase (Aspergillus niger) (UniProt P29853); experiment: Percentage inhibition of Beta-galactosidase from Aspergillus niger at 1 mM concentration; […]
T1 sequence (whole entry): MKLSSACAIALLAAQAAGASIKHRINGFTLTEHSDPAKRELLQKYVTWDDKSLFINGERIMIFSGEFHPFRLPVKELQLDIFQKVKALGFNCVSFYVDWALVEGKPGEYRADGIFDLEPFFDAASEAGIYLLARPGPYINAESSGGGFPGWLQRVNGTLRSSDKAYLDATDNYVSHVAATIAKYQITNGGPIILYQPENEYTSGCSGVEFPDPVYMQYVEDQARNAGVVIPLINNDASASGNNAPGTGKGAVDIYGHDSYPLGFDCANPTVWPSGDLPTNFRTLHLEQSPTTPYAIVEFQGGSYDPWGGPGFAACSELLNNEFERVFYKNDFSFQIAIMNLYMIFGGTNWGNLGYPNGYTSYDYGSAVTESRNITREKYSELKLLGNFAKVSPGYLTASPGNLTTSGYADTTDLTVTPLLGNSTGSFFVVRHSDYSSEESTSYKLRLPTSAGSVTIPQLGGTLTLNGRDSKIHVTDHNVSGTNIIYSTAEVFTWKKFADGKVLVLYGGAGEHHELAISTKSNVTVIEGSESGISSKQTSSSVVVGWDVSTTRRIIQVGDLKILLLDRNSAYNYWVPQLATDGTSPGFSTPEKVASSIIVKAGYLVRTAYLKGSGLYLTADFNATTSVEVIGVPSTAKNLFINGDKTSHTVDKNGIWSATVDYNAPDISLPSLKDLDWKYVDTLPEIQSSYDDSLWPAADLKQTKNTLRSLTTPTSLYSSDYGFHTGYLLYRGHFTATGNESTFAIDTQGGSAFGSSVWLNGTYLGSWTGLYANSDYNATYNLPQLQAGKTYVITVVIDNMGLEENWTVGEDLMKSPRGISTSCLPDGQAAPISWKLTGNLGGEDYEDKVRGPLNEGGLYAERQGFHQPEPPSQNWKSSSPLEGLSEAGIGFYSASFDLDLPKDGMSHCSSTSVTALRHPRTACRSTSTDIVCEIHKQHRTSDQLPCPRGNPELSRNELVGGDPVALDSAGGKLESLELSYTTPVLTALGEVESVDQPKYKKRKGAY

inhibition (Saccharomyces cerevisiae [1]): 90%
inhibition (Saccharomyces cerevisiae [2]): 55%
inhibition [3]: inactive
Compound: OC1CNC(CNCC2CCN(Cc3ccccc3)CC2)C1O (stereo not drawn)
